Laboratory results from PMC6862080, “Blood Compatibility—An Important but Often Forgotten Aspect of the Characterization of Antimicrobial Peptides for Clinical Application” (International Journal of Molecular Sciences, 2019).

Columns and labels:
E. coli (ATCC 11303) = assay: microbe, parasite or virus in culture; format: cell-based; conditions: DIN 58940-8, Müller-Hinton broth, overnight 37 °C, turbidity 620 nm
erythrocyte membranes [1] = assay: Hemolysis in RBC suspended in PBS (Kahn method); format: cell-based, human; conditions: 60 min 37 °C, Kahn method, n = 3, control 8.5 ± 4.7
Experimental: (§1) Hemolysis was tested with fresh citrate anticoagulated blood from healthy volunteers as well as with blood cells which were suspended in phosphate buffered saline (10 mM pH 7.4). Afterwards, 100 μL AMP solution was added to 500 μL blood to finally achieve AMP concentrations of 8, 32, and 128 μg/mL. As the negative and positive control, 100 μL PBS buffer and 100 μL 12% Triton-X buffer was added to 500 μL blood, respectively. After incubation on an orbital shaker for 60 min at 37 °C, the cells were removed by centrifugation and 100 μL of the supernatant were transferred to a 96 well microplate for hemolysis measurement. The hemolysis was calculated from the extinction at the wavelengths 562, 578, and 598 nm with a Synergy 2 microplate reader (BioTek, Winooski, VT, USA) according to the method published by Kahn.

LPS from P. aeruginosa = assay: Endotoxin inactivation in human serum, chromogenic LAL test (P. aeruginosa LPS); format: biochemical; conditions: 500 ng/mL peptide, 5 ng/mL LPS, n = 3
Experimental: (§2) The LPS neutralization study in serum was conducted using a chromogenic Limulus Amebocyte Lysate (LAL) test (Charles River Laboratories, MA, USA). The LAL test is the most established method for quantifying LPS. This method uses amebocyte lysate from Limulus polyphemus, wherein the presence of LPS triggers a defense mechanism that induces coagulation. The LAL test is used successfully for detection of LPS in a wide variety of industrial, pharmaceutical, and research applications, such as water supplies, parenteral fluids, drugs for intravenous administration, and certain biologic fluids (e.g., cerebrospinal fluid). Therefore, serum, which was obtained from freshly drawn blood, was spiked with 500 ng/mL AMPs, PMB or LL-37 before adding 5 ng/mL LPS from E. coli or P. aeruginosa. As positive and negative controls, native serum with and without LPS was used, respectively. Endotoxin activity was measured using the LAL assay according to the manufacturer’s specifications.

S. aureus (ATCC 12600) = assay: microbe, parasite or virus in culture; format: cell-based; conditions: DIN 58940-8, Müller-Hinton broth, overnight 37 °C, turbidity 620 nm
LPS from E. coli = assay: Endotoxin inactivation in human serum, chromogenic LAL test (E. coli LPS); format: biochemical; conditions: 500 ng/mL peptide, 5 ng/mL LPS, n = 3
Experimental: as §2

plasmatic coagulation [2] = assay: Activation of the clotting cascade in heparinized plasma; conditions: heparinized (0.5 IU/mL) plasma, 128 μg/mL, 37 °C, 120 min, turbidity at 600 nm
Experimental: (§3) Plasma spiked with MES buffer without AMP was used as the negative control. […] Samples were incubated at 37 °C for 120 min. Coagulation was determined by turbidity measurement at 600 nm using a well plate reader.

[3] = system: LPS-stimulated leukocytes; conditions: whole blood, PMB serum level between 100 to 200 ng; cited from earlier work
Experimental: Past studies have shown that a PMB serum level between 100 to 200 ng reduces the cytokine secretion of LPS-stimulated leukocytes up to 90% in whole blood. PMB directly interacts with the conserved lipid A region of the LPS molecule. […] In this study, it was tested whether the lactoferrin based peptides are able to form a complex with LPS similar to PMB, which would lead to a reduction of the inflammatory effect of LPS. The results (Figure 3) indicate that in c ...

plasmatic coagulation [4] = assay: Clotting batch test in citrate plasma; format: biochemical, human; conditions: citrate plasma, 37 °C, 60 min, turbidity 600 nm, fibrinogen and D-Dimer; also: key: −: no clotting observed, no D-dimers and normal fibrinogen level; +: clotting observed, high D-dimer level, no detectable fibrinogen serum level
Experimental: Since the acylated LF11-322 peptides cause plasmatic coagulation of citrate anticoagulated plasma, separate clotting experiments were performed with this peptide group. The aim was to check whether the coagulation activation is dependent on the AMP concentration and on the acyl chain length. […] Plasma without additives served as the negative control, whereas plasma spiked with CaCl2/MgCl2 (500/250 mM) solution to restore the physiological calcium and magnesium level in plasma was used as the positive control. Incubation was performed at 37 °C for 60 min. […] In order to ensure that the measured turbidity of the plasma is caused by fibrin formation, the fibrinogen and D-Dimer concentrations were additionally determined. During plasmatic clotting, the fibrinogen level decreases and the D-Dimer level in serum increases. Both were analyzed on a Sysmex CA560 with the corresponding reagents (Siemens Healthineers, Erlangen, Germany).

erythrocyte membranes [5] = assay: Hemolysis in whole blood (Kahn method); format: cell-based, human; conditions: citrate anticoagulated whole blood, 60 min 37 °C, Kahn method, n = 3, control 3.7 ± 1.9
Experimental: as §1

platelets = assay: SEM imaging of platelet morphology in PRP; format: cell-based, human; conditions: 128 μg/mL, 2 h, 37 °C
Experimental: Since it was observed that some AMPs are able to activate the plasmatic coagulation system of heparinized and citrate anticoagulated blood, the influence of this peptides on platelets was investigated. For this purpose, fresh heparinized and citrated blood were collected from three donors. The blood was centrifuged at 500 g for 5 min and platelet rich plasma (PRP) was obtained. The PRP was incubated at 37 °C for 2 h with 128 μg/mL AMP, PMB, and LL-37. PRP without any additives served as the control. After incubation, the platelet number was determined by a Sysmex Automated Hematology Analyzer KX-21-N (Kobe, Japan). In addition, the PRP samples were prepared for SEM to visualize the morphology of the thrombocytes. After incubation, 10 μL PRP were diluted with 990 μL PBS (0.01 M) and filtered through a 0.2 μm membrane (Membrane Filter Isopore 0.2 μm, Merck, Darmstadt, Germany). The platelets were retained on the membrane, washed with 1 mL PBS, and fixed with 1 mL glutaraldehyde solution (2.5% glutaraldehyde in physiological saline solution). After an incubation time of 60 min, the samples were dehydrated using a series of ethanol (30%, 50%, 60%, 70%, 80%, 90%, and 100%). Afterwards the samples were dried overnight at RT, sputtered with gold and visualized with a scanning electron microscope (FLEXSem 1000, Hitachi, Japan).

E. coli and S. aureus = assay: Scanning electron microscopy of bacterial cell wall damage; format: cell-based; conditions: 128 μg/mL, overnight culture at 37 °C, 2 × 10^5–8 × 10^5 CFU/mL
Experimental: In order to verify and to visualize the impact of AMPs on the bacterial membrane, electron microscopy was conducted. Therefore, bacterial suspensions of E. coli and S. aureus with a concentration of 2 × 10^5–8 × 10^5 CFU/mL were incubated with 128 μg/mL of one AMP (LF11-322-C8) and PMB in a microplate over night at 37 °C. After overnight culture, the bacteria were prepared for SEM. To achieve this, the bacteria suspensions were filtered through a sterile filter (Swinnex filter holders, Merck Millipore, Burlington, MA, USA). The filters with the collected bacteria were than washed with PBS (10 mM, pH 7.2) and fixed with a 2.5% glutaraldehyde solution (Carl Roth, Karlsruhe, Deutschland). The fixed specimens were gradually dehydrated by increasing ethanol solutions (10% to 100%) and sputtered with gold (Q150R ES Sputter Coater, Quorum Technologies Ltd., East Sussex, UK) prior to examination with a scanning electron microscope (FlexSEM 1000, Hitachi, Tokyo, Japan).

plasmatic coagulation [6] = assay: Activation of the clotting cascade in citrated plasma; conditions: citrated (17 mM) plasma, 128 μg/mL, 37 °C, 120 min, turbidity at 600 nm
Experimental: as §3

[7] = PBS pH 7.4, inoculum 2 × 10^5–8 × 10^5 CFU/mL

## Polymyxin B [PMB, reference compound]
E. coli (ATCC 11303); 4% human serum albumin
  Minimal Inhibitory Concentration, E. coli, 4% HSA: 4 µg/mL
E. coli (ATCC 11303); PBS containing 5 IU/mL heparin
  Minimal Inhibitory Concentration, E. coli, PBS + heparin: 4 µg/mL
E. coli (ATCC 11303); [7]
  Minimal Inhibitory Concentration, E. coli, PBS: 2 µg/mL
Erythrocyte membranes [1]; blood cells suspended in PBS 10 mM pH 7.4, highest peptide conc.
  Free Hemoglobin, RBC in PBS, 128 μg/mL: 1.9 ± 0.2 mg/dL
Erythrocyte membranes [1]; blood cells suspended in PBS 10 mM pH 7.4, peptide conc. 8 μg/mL
  Free Hemoglobin, RBC in PBS, 8 μg/mL: 14.9 ± 3.1 mg/dL
Erythrocyte membranes [1]; blood cells suspended in PBS 10 mM pH 7.4, peptide conc. 32 μg/mL
  Free Hemoglobin, RBC in PBS, 32 μg/mL: 18.9 ± 11.2 mg/dL
LPS from P. aeruginosa
  Reduction of endotoxin activity of P. aeruginosa LPS: 74 ± 7%
S. aureus (ATCC 12600); 4% human serum albumin
  Minimal Inhibitory Concentration, S. aureus, 4% HSA: 64 µg/mL
S. aureus (ATCC 12600); PBS containing 5 IU/mL heparin
  Minimal Inhibitory Concentration, S. aureus, PBS + heparin: > 128 µg/mL
S. aureus (ATCC 12600); [7]
  Minimal Inhibitory Concentration, S. aureus, PBS: 8 µg/mL
LPS from E. coli
  Reduction of endotoxin activity of E. coli LPS: 63 ± 7%
Plasmatic coagulation [2]
  Plasma clot, Heparin Plasma: −
[3]
  Reduction of cytokine secretion of LPS-stimulated leukocytes: up to 90%
Plasmatic coagulation [4]
  Clotting of citrate plasma, Peptide Concentration 8 μg/mL: −
  Clotting of citrate plasma, Peptide Concentration 32 μg/mL: −
  Clotting of citrate plasma, Peptide Concentration 128 μg/mL: −
  Clotting of citrate plasma, Peptide Concentration 256 μg/mL: −
Erythrocyte membranes [5]; peptide conc. 8 μg/mL
  Free Hemoglobin, BLOOD, 8 μg/mL: 3.5 ± 2.8 mg/dL
Erythrocyte membranes [5]; peptide conc. 32 μg/mL
  Free Hemoglobin, BLOOD, 32 μg/mL: 3.7 ± 1.4 mg/dL
Erythrocyte membranes [5]; peptide conc. 128 μg/mL
  Free Hemoglobin, BLOOD, 128 μg/mL: 2.6 ± 3.9 mg/dL
platelets
  Platelet morphology by SEM, citrate anticoagulated PRP (in words): morphologically intact platelets
E. coli and S. aureus
  Lysis of bacteria cells seen by SEM (in words): not able to lyse S. aureus cells
Plasmatic coagulation [6]
  Plasma clot, Citrated Plasma: −
